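Each compound was tested at five concentrations against cells in 96-well plates for 48 hours. Definition used: TGI = concentration required for complete inhibition of growth.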
What was measured:
Assay in all cases: NCI tumour cell line growth inhibition, 48 h
[1] = test system: TK-10 renal
[2] = test system: U251 CNS
[3] = test system: HCT-116 colon
[4] = test system: MDA-MB-435
[5] = test system: MOLT-4 leukemia
[6] = test system: BT-549 breast
[7] = test system: 786-0 renal
[8] = test system: MCF7 breast
[9] = test system: M14 melanoma
[10] = test system: KM12 colon

| Compound | TGI [1] [µM] | TGI [2] [µM] | TGI [3] [µM] | TGI [4] [µM] | TGI [5] [µM] | TGI [6] [µM] | TGI [7] [µM] | TGI [8] [µM] | TGI [9] [µM] | TGI [10] [µM] |
| --- | --- | --- | --- | --- | --- | --- | --- | --- | --- | --- |
| NS(=O)(=O)c1nnc(NC(=O)N(c2ccccc2)c2ccccc2)s1 | > 100 | > 100 | 83.8 | 68.8 | > 100 | 42.2 | > 100 | > 100 | 35.3 | 56.8 |
| O=c1oc2ccc3ccccc3c2cc1-c1cn2ccsc2n1 | 33.9 | > 100 | 30.9 | 46 | 14.9 | 32.6 | 32.7 | 19 | 60.5 | 66.2 |
| O=C(ON=C1c2ccccc2C(Br)C(Br)c2ccccc21)c1ccccc1 (stereo not given) | 31.5 | 31.6 | 28 | 34.9 | 4.61 | 35.7 | 23 | 31.5 | 32.6 | 33.5 |
| Cc1ccc(-c2cc(-c3ccco3)c(C#N)c(=S)[nH]2)cc1 | > 100 | 62.9 | > 100 | 65.1 | > 100 | > 100 | > 100 | > 100 | > 100 | > 100 |
| CN(O)C(=O)/C=C/c1ccc(OCc2cccc(Cl)c2)cc1 | > 100 | > 100 | 32.9 | > 100 | 39.6 | 85.3 | 47.2 | > 100 | > 100 | 41.3 |
| CC1=CC2C3(C)C(C)(C(C)=CP3(=O)c3c(C(C)C)cc(C(C)C)cc3C(C)C)C1P2(=O)c1c(C(C)C)cc(C(C)C)cc1C(C)C (stereo not given) | 7.34 | 6.59 | 4.02 | 5.33 | 5.78 | 4.58 | 5.47 | 6.38 | 4.21 | 4.05 |
| Cc1nnc2n(c1=O)CCCN2C | > 100 | > 100 | > 100 | > 100 | > 100 | > 100 | > 100 | > 100 | > 100 | > 100 |
| COc1ccc2ccc3oc(=O)c(C)cc3c2c1 | > 100 | > 100 | > 100 | > 100 | > 100 | > 100 | > 100 | > 100 | > 100 | > 100 |
| CN(C)CCN(c1ccccn1)c1ccccn1 | > 100 | > 100 | > 100 | > 100 | > 100 | > 100 | > 100 | > 100 | > 100 | > 100 |
| Cn1c2ccccc2n2c3ncccc3c(=O)c(C#N)c12 | > 100 | 34 | > 59 | > 100 | > 100 | 57.3 | > 81 | 21.1 | > 100 | > 100 |
| NC1=CC(=O)c2c(O)ccc(O)c2C1=O | > 84.8 | 33.9 | 22.3 | 31.6 | > 34.9 | 30.9 | 21.8 | 18.6 | 22.3 | > 78.7 |
| O=CC(I)=C(c1ccccc1)c1ccccc1 | 44.8 | 30.2 | 27.2 | 31.4 | 72.3 | 30 | 28.9 | 31.9 | 35.2 | 28.7 |
| COc1cccc(C2c3cc4c(cc3OC(O)C2C)OCO4)c1OC (stereo not given) | 52 | 40.2 | 12.3 | 33.9 | 18.5 | 65.6 | 19.2 | > 100 | 50.9 | 33.9 |
| N#Cc1c(-c2ccc([N+](=O)[O-])cc2)cc(-c2ccc(Nc3ccnc4cc(Cl)ccc34)cc2)[nH]c1=O | > 100 | > 100 | > 100 | > 100 | > 100 | > 100 | > 100 | > 100 | > 100 | > 100 |
| COc1ccc2c(c1)c1c(n2CCN2CCCCC2)-c2cccc(OC)c2CC1 | 32.8 | 29.9 | > 100 | 31.5 | 48 | 41.6 | 55.4 | 35.4 | 25 | 28.8 |
